Patent publication US12729186B2, “Prodrugs for sustained releasing therapeutic agents and uses thereof” (LIANGJIANG MEDICINE CO., LTD., priority 2020, dated 2026)

Experiment: Drug release assay (hydrolysis rate test in pH 7.4 / pH 2.0 buffer, HPLC)
Type: physicochemical
Settings: for Hydrolysis constant Kh pH 2.0 / Hydrolysis constant Kh pH 7.4: Kh=-ln[100%-Release rate (%)]/t; for Release rate (%) pH 2.0 (6 h): pH 2.0 buffer solution; for Release rate (%) pH 2.0 (6 h) / Release rate (%) pH 7.4 (0.5 h) / Release rate (%) pH 7.4 (6 h): 37° C., 200 rpm, residual content relative to 0 h by HPLC; for Release rate (%) pH 7.4 (0.5 h) / Release rate (%) pH 7.4 (6 h): pH 7.4 buffer solution
Description: Preparation of pH2.0 Buffer Solution
Preparation of pH7.4 Buffer Solution
Method of Hydrolysis Rate Test
The compounds were dissolved in pH7.4/pH2.0 buffer solution, placed in a constant temperature shaker at 37° C. and 200 rpm, and sampled at 0 h, 0.5 h and 6 h respectively. The residual contents of the compounds relative to 0 h were tested at each time point.
The release rates (%) were calculated using the following equation: Release rate (%)=[A(0h)−A(xh)]/A(0h)×100%, (x=0, 0.5, 6), A(xh) is the peak area of compounds tested by HPLC at the indicated time point.
The hydrolysis constants (Kh) were calculated using the following equation: Hydrolysis constant Kh=−ln[100%−Release rate (%)]/t Results

| SMILES | Release rate (%) pH 2.0 (6 h) [%] | Release rate (%) pH 7.4 (0.5 h) [%] | Release rate (%) pH 7.4 (6 h) [%] | Hydrolysis constant Kh pH 2.0 | Hydrolysis constant Kh pH 7.4 |
| --- | --- | --- | --- | --- | --- |
| CCCCN(CCCC)c1ccc(N2CCC(CCOC(=O)OCn3cc(F)c(=O)[nH]c3=O)CC2)cc1 [Example 1, 2-(1-(4-(Dibutylamino)phenyl)piperidin-4-yl)ethyl ((5-fluoro-2,4-dioxo-3,4-dihydropyrimidin-1(2H)-yl)methyl) carbonate] | 0 | 5.4 | 64 | <0.001 | 0.111 |
| CCCN(CCC)c1ccc(-c2ccc(OC(=O)OCn3cc(F)c(=O)[nH]c3=O)cc2)cc1 [Example 2, 4′-(Dipropylamino)-[1,1′-biphenyl]-4-yl ((5-fluoro-2,4-dioxo-3,4-dihydropyrimidin-1(2H)-yl)methyl) carbonate] | 38 | 69.5 | 89 | 0.080 | 2.375 |
| CCCCCN(CCCCC)c1ccc(OC(=O)OCn2cc(F)c(=O)[nH]c2=O)cc1 [Example 3, 4-(Dipentylamino)phenyl ((5-fluoro-2,4-dioxo-3,4-dihydropyrimidin-1(2H)-yl)methyl) carbonate] | 60 | 60.8 | 100 | 0.153 | 1.873 |
| Cc1cc(C)cc(N2CCC(c3ccc(OC(=O)OCn4cc(F)c(=O)[nH]c4=O)cc3)CC2)c1 [Example 4, 4-(1-(3,5-Dimethylphenyl)piperidin-4-yl)phenyl ((5-fluoro-2,4-dioxo-3,4-dihydropyrimidin-1(2H)-yl)methyl) carbonate] | 21 | 82.7 | 98 | 0.039 | 3.509 |
| CCCc1ccc(N2CCc3cc(OC(=O)OCn4cc(F)c(=O)[nH]c4=O)ccc3C2)cc1 [Example 5, (5-Fluoro-2,4-dioxo-3,4-dihydropyrimidin-1(2H)-yl)methyl (2-(4-propylphenyl)-1,2,3,4-tetrahydroisoquinolin-6-yl) carbonate] | 56 | 94.6 | 95 | 0.137 | 5.838 |

Further lines, with some results ahead:

| Release rate (%) pH 2.0 (6 h) [%] | Release rate (%) pH 7.4 (0.5 h) [%] | Release rate (%) pH 7.4 (6 h) [%] | SMILES | Hydrolysis constant Kh pH 2.0 | Hydrolysis constant Kh pH 7.4 |
| --- | --- | --- | --- | --- | --- |
| 18 | 82.8 | 75 | CCCc1ccc(N2CCC(Cc3ccc(OC(=O)OCn4cc(F)c(=O)[nH]c4=O)cc3)CC2)cc1 [Example 6, (5-Fluoro-2,4-dioxo-3,4-dihydropyrimidin-1(2H)-yl)methyl (4-((1-(4-propylphenyl)piperidin-4-yl)methyl)phenyl) carbonate] | 0.033 | 3.521 |
| 16 | 99.3 | 92 | O=C(OCn1cc(F)c(=O)[nH]c1=O)Oc1ccc(C2CCN(CC(c3ccccc3)c3ccccc3)CC2)cc1 [Example 7, 4-(1-(2,2-Diphenylethyl)piperidin-4-yl)phenyl ((5-fluoro-2,4-dioxo-3,4-dihydropyrimidin-1(2H)-yl)methyl) carbonate] | 0.029 | 9.924 |
| 22 | 99.6 | 99 | O=C(OCn1cc(F)c(=O)[nH]c1=O)Oc1ccc(C2CCN(CC34CC5CC(CC(C5)C3)C4)CC2)cc1 [Example 8, 4-(1-(Adamantan-1-ylmethyl)piperidin-4-yl)phenyl ((5-fluoro-2,4-dioxo-3,4-dihydropyrimidin-1(2H)-yl)methyl) carbonate] | 0.041 | 11.043 |
